From article PMC8637766, “A mixed chirality α-helix in a stapled bicyclic and a linear antimicrobial peptide revealed by X-ray crystallography” (RSC Chemical Biology, 2021)
≈ marks a conversion by molar mass, not a printed value. Square brackets hold non-standard residues; d marks the D form. Ends that are not written are not given here. Peptide text beside a SMILES is read from it. * marks the point of attachment. Benzoyl(4-Me) = Cc1ccc(C(=O)*)cc1

Legend:
P. aeruginosa PAO1 = format: cell-based, Pseudomonas aeruginosa
Protocol: (§1) Bicyclic and linear peptides cytotoxicity was assayed against P. aeruginosa PAO1, P. aeruginosa ZEM-1A, P. aeruginosa ZEM9A, K. pneumoniae Oxa-48, E. coli W3110, A. baumannii BAL225, S. aureus Newman, S. aureus COL (clinical isolate of MRSA) , B. Subtilis BR151.
(§2) To determine the Minimal Inhibitory Concentration (MIC), Broth Microdilution method was used . 2 A colony of bacteria from glycerol stock was grown in LB medium overnight at 37 °C and 180 rpm shaking. The compounds were prepared as stock solutions of 8 mg/mL in sterilized milliQ deionized water, added to the first well of 96 -well sterile, polypropylene round bottom microtiter plates (TPP, untreated) and diluted serially by ½. The concentration of the bacteria was quantified by measuring absorbance at 600 nm and diluted to an OD 600 of 0.022 in MH medium. The sample solutions (150 µL) were mixed with 4 µL diluted bacterial suspension with a final inoculation of about 5×10^5 CFU.
(§3) For each test, two columns of the plate were kept for sterility control (MH medium only), growth control (MH medium with bacterial inoculum, no compound). The positive control, Polymyxin B (starting with a concentration of 64 µg/mL) in MH medium with bacterial inoculums, was introduced in the two first lines of the plate. The plates were incubated at 37 °C for ~18 hours under static conditions. 15 μL of 3-(4,5-dimethylthiazol-2-yl)-2,5-diphenyltetrazolium bromide (MTT)3 (1 mg/mL in sterilized milliQ deionized water) were added to each well and the plates were incubated for 20-30 minutes at room temperature. The minimal inhibitory concentration (MIC) was defined as the lowest concentration of the dendrimer that inhibits the visible growth of the tested bacteria (yellow) with the unaided eye.

P. aeruginosa ZEM-1A = format: cell-based, Pseudomonas aeruginosa
Protocol: as §1, §2, §3

P. aeruginosa ZEM9A = format: cell-based, Pseudomonas aeruginosa
Protocol: as §1, §2, §3

[1] = Lipid vesicle leakage assay, 5(6)-carboxyfluorescein release; conditions: 10 μg mL^−1 compound, leakage at 250 s; 10 mM TRIS, 107 mM NaCl, pH 7.4, 25 °C; carboxyfluorescein fluorescence, Triton X-100 = full release
Protocol: 4 Lipid Vesicle Leakage assays
5(6)-carboxyfluorescein (CF) was purchased from Sigma. Egg Yolk Phosphatidylcholine (EYPC),
Egg Yolk Phosphatidylglycerol (EYPG) and a Mini-Extruder were purchased from Avanti Polar
Lipids. Egg PC or Egg PG thin lipid layers were prepared by evaporating a solution of 100 mg EYPC
or EYPG in 4 mL MeOH/CHCl3 (1:1) on a rotary evaporator at room temperature and then dried in
vacuo overnight. The resulting film was then hydrated with 4 mL CF buffer (50 mM CF, 10 mM
TRIS, 107 mM NaCl, pH 7.4) for 30 min, subjected to freeze-thaw cycles (7×) and extrusion (15×)
through a polycarbonate membrane (pore size 100 nm). Extra vesicular components were removed
by gel filtration (Sephadex G-50) with 10 mM TRIS, 107 mM NaCl, pH 7.4 buffer. Final conditions:
~ 2.5 mM PC or PG; inside: 50 mM CF, 10 mM TRIS, 10 mM NaCl, pH 7.4 buffer; outside: 10 mM
TRIS, 107 mM NaCl, pH 7.4. PC or PG stock solutions (37.5 µL) were diluted to 3000 µL with a
buffer (10 mM TRIS, 107 mM NaCl, pH 7.4) in a thermostated fluorescence cuvette (25 °C) and
gently stirred (final lipid concentration ~31 µM). CF efflux was monitored at λem 517 nm (λex 492
nm) as a function of time after addition of the desired volume of peptide (1 or 20 mg/mL stock in mQ
water) at t = 45 s. The following final concentrations of peptide were monitored: 5, 10, 15, 20, 25 and
200 µg/mL. Finally, 30 µL of 1.2% Triton X -100 was added to the cuvette (0.012% final
concentration) at t = 285 s to reach the maximum intensity. Fluorescence intensities were then
Figure S1: Vesicle leakage experiments using 5(6)-carboxyfluorescein induced by peptides. EYPG and EYPC vesicles
were suspended in buffer (10 mM TRIS, 107 mM NaCl, pH 7.4) and the indicated concentration of the compound was
added after 45 sec. After 285 seconds 30 μL Triton X-100 1.2% was added for full release of fluorescein. […]

A. baumannii BAL225 = format: cell-based
Protocol: as §1, §2, §3

E. coli W3110 = format: cell-based
Protocol: as §1, §2, §3

K. pneumoniae Oxa-48 = format: cell-based
Protocol: as §1, §2, §3

[2] = tested on: S. aureus COL (clinical isolate of MRSA); format: cell-based
Protocol: as §1, §2, §3

S. aureus Newman = format: cell-based
Protocol: as §1, §2, §3

B. subtilis BR151 = format: cell-based, Bacillus subtilis; conditions: BR151, 20 h
Protocol: as §1, §2
For each test, two columns of the plate were kept for sterility control (MH medium only), growth control (MH medium with bacterial inoculum, no compound). The positive control, Polymyxin B (starting with a concentration of 64 µg/mL) in MH medium with bacterial inoculums, was introduced in the two first lines of the plate. […]
conditions. 15 μL of 3-(4,5-dimethylthiazol-2-yl)-2,5-diphenyltetrazolium bromide (MTT)3 (1 mg/mL in sterilized milliQ deionized water) were added to each well and the plates were incubated for 20-30 minutes at room temperature. The minimal inhibitory concentration (MIC) was defined as the lowest concentration of the dendrimer that inhibits the visible growth of the tested bacteria (yellow) with the unaided eye.

Compound	MIC PAO1 (P. aeruginosa PAO1) [mg/L]	MIC P. aeruginosa ZEM-1A (P. aeruginosa ZEM-1A) [mg/L]	MIC P. aeruginosa ZEM9A (P. aeruginosa ZEM9A) [mg/L]	EYPC vesicle leakage [1] [%]	EYPG vesicle leakage [1] [%]	MIC A. baumannii BAL225 (A. baumannii BAL225) [mg/L]	MIC E. coli W3110 (E. coli W3110) [mg/L]	MIC K. pneumoniae Oxa-48 (K. pneumoniae Oxa-48) [mg/L]	MIC S. aureus COL [2] [mg/L]	MIC S. aureus Newman (S. aureus Newman) [mg/L]	MIC BR 151 (B. subtilis BR151) [mg/L]
Cc1c2cc3cc1CSC[C@H](NC(=O)[C@H](CCCCN)NC(=O)[C@H](CC(C)C)NC(=O)[C@H](CC(C)C)NC(=O)[C@H](CCCCN)NC(=O)[C@H](CCCCN)NC3=O)C(=O)N[C@@H](CC(C)C)C(=O)N[C@@H](CCCCN)C(=O)N[C@H](C(=O)N[C@@H](CC(C)C)C(=O)N[C@@H](CC(C)C)C(N)=O)CSC2 [bp65] (HELM PEPTIDE1{K.K.L.L.K.C.L.K.C.L.L.[am]}|CHEM1{[Cc1c(C[*:2])cc(C(=O)[*:1])cc1C[*:3]]}$PEPTIDE1,CHEM1,1:R1-1:R1|PEPTIDE1,CHEM1,6:R3-1:R2|PEPTIDE1,CHEM1,9:R3-1:R3$$$V2.0)	8 (≈ 5.54 µM)	8 (≈ 5.54 µM)	>32	37	34	4 (≈ 2.77 µM)	8 (≈ 5.54 µM)	16 (≈ 11.1 µM)	8 (≈ 5.54 µM)	8 (≈ 5.54 µM)	2 (≈ 1.39 µM)
Cc1c2cc3cc1CSC[C@H](NC(=O)[C@@H](CCCCN)NC(=O)[C@H](CC(C)C)NC(=O)[C@H](CC(C)C)NC(=O)[C@@H](CCCCN)NC(=O)[C@@H](CCCCN)NC3=O)C(=O)N[C@@H](CC(C)C)C(=O)N[C@H](CCCCN)C(=O)N[C@H](C(=O)N[C@@H](CC(C)C)C(=O)N[C@@H](CC(C)C)C(N)=O)CSC2 [bp69] (HELM PEPTIDE1{[dK].[dK].L.L.[dK].C.L.[dK].C.L.L.[am]}|CHEM1{[Cc1c(C[*:2])cc(C(=O)[*:1])cc1C[*:3]]}$PEPTIDE1,CHEM1,1:R1-1:R1|PEPTIDE1,CHEM1,6:R3-1:R2|PEPTIDE1,CHEM1,9:R3-1:R3$$$V2.0)	16 (≈ 11.1 µM)	4 to 8	>32	57	48	4 (≈ 2.77 µM)	8 (≈ 5.54 µM)	16 (≈ 11.1 µM)	4 (≈ 2.77 µM)	2 to 4	
CSC[C@H](NC(=O)[C@H](CCCCN)NC(=O)[C@H](CC(C)C)NC(=O)[C@H](CSC)NC(=O)[C@H](CCCCN)NC(=O)[C@H](CC(C)C)NC(=O)[C@H](CC(C)C)NC(=O)[C@H](CCCCN)NC(=O)[C@H](CCCCN)NC(=O)c1ccc(C)cc1)C(=O)N[C@@H](CC(C)C)C(=O)N[C@@H](CC(C)C)C(N)=O [ln65b] ({Benzoyl(4-Me)}-KKLLKC(Me)LKC(Me)LL-NH2)	4 to 8	4 (≈ 2.76 µM)	16 (≈ 11 µM)			4 (≈ 2.76 µM)	8 (≈ 5.52 µM)	8 (≈ 5.52 µM)	4 (≈ 2.76 µM)	4 (≈ 2.76 µM)	
CC(C)C[C@H](NC(=O)[C@H](CC(C)C)NC(=O)[C@H](CC(C)C)NC(=O)[C@@H](CCCCN)NC(=O)[C@H](CC(C)C)NC(=O)[C@H](CC(C)C)NC(=O)[C@@H](CCCCN)NC(=O)[C@H](CC(C)C)NC(=O)[C@H](CC(C)C)NC(=O)[C@@H](CCCCN)NC(=O)[C@H](N)CCCCN)C(N)=O [ln69] (HELM PEPTIDE1{[dK].[dK].L.L.[dK].L.L.[dK].L.L.L.[am]}$$$$V2.0)	8 (≈ 6.05 µM)	8 (≈ 6.05 µM)	>32			2 to 4	4 (≈ 3.03 µM)	8 (≈ 6.05 µM)	16 (≈ 12.1 µM)	8 (≈ 6.05 µM)	
CSC[C@H](NC(=O)[C@@H](CCCCN)NC(=O)[C@H](CC(C)C)NC(=O)[C@H](CSC)NC(=O)[C@@H](CCCCN)NC(=O)[C@H](CC(C)C)NC(=O)[C@H](CC(C)C)NC(=O)[C@@H](CCCCN)NC(=O)[C@@H](CCCCN)NC(=O)c1ccc(C)cc1)C(=O)N[C@@H](CC(C)C)C(=O)N[C@@H](CC(C)C)C(N)=O [ln69b] ({Benzoyl(4-Me)}-[dK][dK]LL[dK]C(Me)L[dK]C(Me)LL-NH2)	16 (≈ 11 µM)	8 (≈ 5.52 µM)	>32			8 (≈ 5.52 µM)	8 (≈ 5.52 µM)	>32	32 (≈ 22.1 µM)	32 (≈ 22.1 µM)	
KKLLKLLKLLL-NH2 [ln65]	2 to 4	2 to 4	16			2 to 4	4	4	4	2 to 4	
